Read-outs that look alike come from different tables or passages of the source. Peptide text beside a SMILES is read from it.
Assays:
Assay type in all cases: cell-based
[1] = target: T1, human APJ receptor (hAPJ) (Homo sapiens, UniProt P35414); assay: HTRF cAMP assay: inhibition of NKH477-stimulated cAMP in HEK cells stably expressing hAPJ; details: for Emax: HEK293, read-out: % IA, bound stated; for % IA (cAMP inhibition, hAPJ HEK): intrinsic activity; for Ranking: composite class of EC50 (hAPJ), % IA and % histamine or formal (+) charge; for inhibition of NKH477-stimulated increase in cAMP, dose dependent: concentration response curves, FIGS. 1 and 2, HEK cells stably expressing APJ
T1 construct: expressed in transfected cells
T1 sequence (P35414 1-380): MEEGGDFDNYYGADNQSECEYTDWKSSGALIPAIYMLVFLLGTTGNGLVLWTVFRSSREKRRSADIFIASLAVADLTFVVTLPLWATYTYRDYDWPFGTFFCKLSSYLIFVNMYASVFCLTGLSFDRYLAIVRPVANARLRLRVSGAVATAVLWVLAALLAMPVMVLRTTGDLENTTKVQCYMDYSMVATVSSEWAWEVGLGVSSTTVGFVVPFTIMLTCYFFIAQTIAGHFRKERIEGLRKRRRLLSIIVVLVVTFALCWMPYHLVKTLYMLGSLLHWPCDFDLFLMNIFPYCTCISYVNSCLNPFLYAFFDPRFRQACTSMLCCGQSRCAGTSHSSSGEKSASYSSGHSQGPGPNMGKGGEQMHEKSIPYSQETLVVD
Method in brief: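 HEK cells stably expressing hAPJ, induced with 1 nG/mL doxycycline and seeded overnight at 40 k/well. cAMP read by HTRF competitive immunoassay using cryptate-labeled anti-cAMP antibody and d2-labeled cAMP.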

rat peritoneal cells = assay: Ex vivo histamine release assay in rat peritoneal cells (vs. Compound 48/80)
Method in brief: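 Resident peritoneal cells were lavaged from male Sprague Dawley rats and kept in HBSS/20 mM HEPES/0.2% BSA at 25,000 cells/well. They were exposed for 30 min at room temperature to compound at 3 points (100, 10, 1 μM DMSO stocks, 1% DMSO final). Released histamine was measured by HTRF and normalised to total histamine after Triton lysis. Compound 48/80 was the reference.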

APJ receptor [2] = target: T2, APJ receptor (Homo sapiens, UniProt P35414); assay: DiscoveRx PathHunter β-arrestin recruitment assay; details: for β-arrestin recruitment: dose dependent chemiluminescence, FIGS. 3A-3B; for Emax: read-out: β-arrestin Signaling Max Response
T2 sequence (P35414 1-380): T1 sequence (P35414 1-380)
Text: Activation of the β-Arrestin signaling pathway was monitored using the commercially available DiscoveRx PathHunter® assay. This assay employs a homogenous, non-imaging assay format called Enzyme Fragment Complementation (EFC) using β-galactosidase (β-Gal) as the functional reporter. […] EA is fused to β-Arrestin and ED is fused to the GPCR of interest. When the GPCR is activated and β-Arrestin is recruited to the receptor, ED and EA complementation occurs, restoring βGal activity which is measured using chemiluminescent PathHunter® Detection Reagent.

CXCR4 receptor = CXCR4 receptor (Homo sapiens, UniProt P61073); assay: Activity at CXCR4 receptor (selectivity, Gi-coupled GPCR); details: FIGS. 6A-6C, selectivity vs. hAPJ
CXCR4 receptor, sequence (P61073 whole entry): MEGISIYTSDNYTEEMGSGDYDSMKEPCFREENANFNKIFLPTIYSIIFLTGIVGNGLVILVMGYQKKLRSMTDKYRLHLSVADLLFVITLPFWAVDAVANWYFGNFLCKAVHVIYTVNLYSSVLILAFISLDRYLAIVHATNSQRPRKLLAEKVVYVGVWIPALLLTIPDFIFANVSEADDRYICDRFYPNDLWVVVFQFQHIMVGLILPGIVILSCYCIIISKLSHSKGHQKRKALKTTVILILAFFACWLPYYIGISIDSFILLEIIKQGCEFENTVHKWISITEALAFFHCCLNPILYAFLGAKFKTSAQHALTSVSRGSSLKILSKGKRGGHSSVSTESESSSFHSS

APJ receptor [3] = target: T2, APJ receptor; assay: Cellul'erk ERK phosphorylation assay in APJ-TREX cells; set-up: expressed in transfected cells; host or cells: Human TRex (APJ-TREX) cells, doxycycline-inducible expression; details: relative to max pyr-apelin-13 activity at 100 nM; 3 or 0.3 μM compound, 5 minutes
Procedure: Experiments were performed to test activation of the ERK and p38 pathways using the Cellul'erk and the Phospho-p38 MAPK (Thr180/Tyr182) assay kits (Cisbio). APJ-TREX cells were optimized for signaling (pre-serum starved overnight with low FBS serum (2% FBS media) with 1 ng/ml doxycyclin (for induction of APJ receptor expression), 50,000 cells, 5 minutes agonist activation for ERK activity). Cells were pretreated with 3 or 0.3 μM pepducin compound for 5 minutes and the reaction was stopped by lysis buffer. Lysates are then transferred to the assay plate for the detection of phosphorylated ERK or p38 by HTRF reagents.

[4] = EC50 (cAMP inhibition, hAPJ HEK), Table 6, hAPJ HEK cells, NKH477-stimulated cAMP
[5] = EC50 (hAPJ), inhibition of cAMP production, bound stated, HTRF cAMP Assay, per data of Table 6
[6] = HTRF cAMP Assay, per data of Table 6
[7] = histamine release from rat peritoneal cells relative to Compound 48/80
[8] = HTRF cAMP Assay, per data of Table 6, read-out: EC50 (hAPJ), inhibition of cAMP production, bound stated
[9] = Table 6, hAPJ HEK cells, NKH477-stimulated cAMP, read-out: EC50 (cAMP inhibition, hAPJ HEK)

| inhibition of NKH477-stimulated increase in cAMP, dose dependent [1] | EC50 [1, 8] | EC50 [1, 9] | activity at the CXCR4 receptor (CXCR4 receptor) | Histamine (% vs. 48/80) (rat peritoneal cells) | EC50 (APJ receptor [2]; PathHunter chemiluminescence, read-out: β-arrestin Signaling EC50) | Compound | EC50 [1, 4] | EC50 [1, 5] | Emax [1, 6] | % IA (cAMP inhibition, hAPJ HEK) ([1]; Table 6, hAPJ HEK cells) | Ranking [1] | Histamine (% vs. 48/80) (rat peritoneal cells; [7]) | EC50 (APJ receptor [2]) | β-arrestin recruitment (APJ receptor [2]) | Emax (APJ receptor [2]) | Average % Activity (ERK agonist activity) (APJ receptor [3]) |
| --- | --- | --- | --- | --- | --- | --- | --- | --- | --- | --- | --- | --- | --- | --- | --- | --- |
| – | – | – | – | – | – | CCCCCCCCCCCCCCCC(=O)N1CCC[C@H]1C(=O)N[C@H](C(=O)N[C@H](C(=O)N[C@@H](Cc1ccccc1)C(=O)N[C@@H](CCCNC(=N)N)C(=O)N[C@@H](CO)C(=O)N1CCC[C@H]1C(=O)N[C@@H](CO)C(=O)N[C@@H](CCC(=O)O)C(=O)N[C@H](CCCCN)C(=O)N[C@@H](CCCNC(=N)N)C(=O)N[C@@H](CCCNC(=N)N)C(=O)N[C@@H](CO)C(=O)N[C@@H](C)C(=O)N[C@@H](CC(=O)O)C(=O)N[C@H](C(=O)N[C@@H](Cc1ccccc1)C(=O)N[C@H](C(N)=O)[C@@H](C)CC)[C@@H](C)CC)C(C)C)[C@@H](C)O [Compound 3] (HELM PEPTIDE1{[CCCCCCCCCCCCCCCC(=O)[*:2]].P.T.V.F.R.S.P.S.E.[dK].R.R.S.A.D.I.F.I.[am]}$$$$V2.0) | 13 nM | ≤ 25 nM | ≥ 80% | 90% | **** (EC50≦25 nM (hAPJ), % IA≧80% and either % histamine>35% or formal (+) charge>1) | 64% | 8.2 nM | weakly engaged | 11% | – |
| inhibited | ≤ 25 nM | 8 nM | lack of dose-responsive activity | – | – | CCCCCCCCCCCCCCCC(=O)N[C@H](C(=O)N[C@H](C(=O)N[C@@H](Cc1ccccc1)C(=O)N[C@@H](CCCNC(=N)N)C(=O)N[C@@H](CO)C(=O)N[C@@H](CCC(=O)O)C(=O)N[C@H](CCCCN)C(=O)N[C@@H](CCCNC(=N)N)C(=O)N[C@@H](CCCNC(=N)N)C(=O)N[C@@H](CO)C(=O)N[C@@H](C)C(=O)N[C@@H](CC(=O)O)C(=O)N[C@@H](CCC(N)=O)C(=O)N[C@@H](Cc1ccccc1)C(=O)N[C@H](C(N)=O)[C@@H](C)CC)C(C)C)[C@@H](C)O [Compound 14] (HELM PEPTIDE1{[CCCCCCCCCCCCCCCC(=O)[*:2]].T.V.F.R.S.E.[dK].R.R.S.A.D.Q.F.I.[am]}$$$$V2.0) | – | – | ≥ 80% | 87% | **** (EC50≦25 nM (hAPJ), % IA≧80% and either % histamine>35% or formal (+) charge>1) | – | – | – | – | 58.2% |
| inhibited | ≤ 25 nM | 15 nM | lack of dose-responsive activity | – | – | CCCCCCCCCCCCCCCC(=O)N[C@H](C(=O)N[C@H](C(=O)N[C@@H](Cc1ccccc1)C(=O)N[C@@H](CCCNC(=N)N)C(=O)N[C@@H](CO)C(=O)N[C@@H](CO)C(=O)N[C@@H](CCC(=O)O)C(=O)N[C@H](CCCCN)C(=O)N[C@@H](CCCNC(=N)N)C(=O)N[C@@H](CCCNC(=N)N)C(=O)N[C@@H](CO)C(=O)N[C@@H](C)C(=O)N[C@@H](CC(=O)O)C(=O)N[C@@H](CC(N)=O)C(=O)N[C@@H](Cc1ccccc1)C(=O)N[C@H](C(N)=O)[C@@H](C)CC)C(C)C)[C@@H](C)O [Compound 18] (HELM PEPTIDE1{[CCCCCCCCCCCCCCCC(=O)[*:2]].T.V.F.R.S.S.E.[dK].R.R.S.A.D.N.F.I.[am]}$$$$V2.0) | – | – | ≥ 80% | 117% | **** (EC50≦25 nM (hAPJ), % IA≧80% and either % histamine>35% or formal (+) charge>1) | – | – | – | – | – |
| inhibited | ≤ 25 nM | 11 nM | – | 73% | 59.6 nM | CCCCCCCCCCCCCCCC(=O)N[C@H](C(=O)N[C@H](C(=O)N[C@@H](Cc1ccccc1)C(=O)N[C@@H](CCCNC(=N)N)C(=O)N[C@@H](CO)C(=O)N[C@@H](CO)C(=O)N1CCC[C@H]1C(=O)N[C@@H](CCC(=O)O)C(=O)N[C@H](CCCCN)C(=O)N[C@@H](CCCNC(=N)N)C(=O)N[C@@H](CCCNC(=N)N)C(=O)N[C@@H](CO)C(=O)N[C@@H](C)C(=O)N[C@@H](CC(=O)O)C(=O)N[C@H](C(=O)N[C@@H](Cc1ccccc1)C(=O)N1CCC[C@H]1C(N)=O)[C@@H](C)CC)C(C)C)[C@@H](C)O [Compound 26] (HELM PEPTIDE1{[CCCCCCCCCCCCCCCC(=O)[*:2]].T.V.F.R.S.S.P.E.[dK].R.R.S.A.D.I.F.P.[am]}$$$$V2.0) | – | – | ≥ 80% | 105% | **** (EC50≦25 nM (hAPJ), % IA≧80% and either % histamine>35% or formal (+) charge>1) | – | – | weakly engaged | 46% | – |

| Compound | inhibition of NKH477-stimulated increase in cAMP, dose dependent [1] | EC50 [1, 8] | EC50 [1, 9] | activity at the CXCR4 receptor (CXCR4 receptor) | Histamine (% vs. 48/80) (rat peritoneal cells) | EC50 (APJ receptor [2]; PathHunter chemiluminescence, read-out: β-arrestin Signaling EC50) | EC50 [1, 4] | EC50 [1, 5] | Emax [1, 6] | % IA (cAMP inhibition, hAPJ HEK) ([1]; Table 6, hAPJ HEK cells) | Ranking [1] | Histamine (% vs. 48/80) (rat peritoneal cells; [7]) | EC50 (APJ receptor [2]) | β-arrestin recruitment (APJ receptor [2]) | Emax (APJ receptor [2]) | Average % Activity (ERK agonist activity) (APJ receptor [3]) |
| --- | --- | --- | --- | --- | --- | --- | --- | --- | --- | --- | --- | --- | --- | --- | --- | --- |
| CCCCCCCCCCCCCCCC(=O)N[C@H](C(=O)N[C@H](C(=O)N[C@@H](Cc1ccccc1)C(=O)N[C@@H](CCCNC(=N)N)C(=O)N[C@@H](CO)C(=O)N[C@@H](CO)C(=O)N[C@@H](CCC(=O)O)C(=O)N1CCC[C@H]1C(=O)N[C@H](CCCCN)C(=O)N[C@@H](CCCNC(=N)N)C(=O)N[C@@H](CCCNC(=N)N)C(=O)N[C@@H](CO)C(=O)N[C@@H](C)C(=O)N[C@@H](CC(=O)O)C(=O)N[C@H](C(=O)N[C@@H](Cc1ccccc1)C(=O)N[C@H](C(N)=O)[C@@H](C)CC)[C@@H](C)CC)C(C)C)[C@@H](C)O [Compound 27] (HELM PEPTIDE1{[CCCCCCCCCCCCCCCC(=O)[*:2]].T.V.F.R.S.S.E.P.[dK].R.R.S.A.D.I.F.I.[am]}$$$$V2.0) | inhibited | – | – | – | – | – | 7 nM | ≤ 25 nM | ≥ 80% | 105% | **** (EC50≦25 nM (hAPJ), % IA≧80% and either % histamine>35% or formal (+) charge>1) | 67% | 8.1 nM | weakly engaged | 23.7% | – |
| CCCCCCCCCCCCCCCC(=O)N[C@H](C(=O)N[C@H](C(=O)N[C@@H](Cc1ccccc1)C(=O)N[C@@H](CCCNC(=N)N)C(=O)N[C@@H](CO)C(=O)N[C@@H](CO)C(=O)N1CCC[C@H]1C(=O)N[C@@H](CCC(=O)O)C(=O)N[C@H](CCCCN)C(=O)N[C@@H](CCCNC(=N)N)C(=O)N[C@@H](CCCNC(=N)N)C(=O)N[C@@H](CO)C(=O)N[C@@H](C)C(=O)N[C@@H](CC(=O)O)C(=O)N[C@H](C(=O)N[C@@H](Cc1ccccc1)C(=O)N[C@H](C(N)=O)[C@@H](C)CC)[C@@H](C)CC)C(C)C)[C@@H](C)O [Compound 25] (HELM PEPTIDE1{[CCCCCCCCCCCCCCCC(=O)[*:2]].T.V.F.R.S.S.P.E.[dK].R.R.S.A.D.I.F.I.[am]}$$$$V2.0) | inhibited | – | – | – | – | – | 15 nM | ≤ 25 nM | ≥ 80% | 138% | **** (EC50≦25 nM (hAPJ), % IA≧80% and either % histamine>35% or formal (+) charge>1) | 51% | 3.1 nM | weakly engaged | 12.6% | 25.5% |

From patent US20160159861A1, “APJ Receptor Compounds” (priority 2013, published 2016)
